Columns and labels:
B16.F10 melanoma tumours = experiment: Subcutaneous B16.F10 melanoma in IMDM-CR mice: overall survival; type: in vivo, mouse
[1] = Maximum tolerable dose and body weight of mice given metabolite intraperitoneally; type: in vivo; conditions: 83 mg/kg body weight, given every 48 hours, intraperitoneal
GSDMD [2] = target: T1, GSDMD (Homo sapiens, UniProt P57764); experiment: Thermal proteomic profiling (TPP) in intact THP1-Dual cells; type: binding
T1 construct: host or cells: THP1-Dual cells (human monocytic reporter line)
T1 sequence (P57764 1-484): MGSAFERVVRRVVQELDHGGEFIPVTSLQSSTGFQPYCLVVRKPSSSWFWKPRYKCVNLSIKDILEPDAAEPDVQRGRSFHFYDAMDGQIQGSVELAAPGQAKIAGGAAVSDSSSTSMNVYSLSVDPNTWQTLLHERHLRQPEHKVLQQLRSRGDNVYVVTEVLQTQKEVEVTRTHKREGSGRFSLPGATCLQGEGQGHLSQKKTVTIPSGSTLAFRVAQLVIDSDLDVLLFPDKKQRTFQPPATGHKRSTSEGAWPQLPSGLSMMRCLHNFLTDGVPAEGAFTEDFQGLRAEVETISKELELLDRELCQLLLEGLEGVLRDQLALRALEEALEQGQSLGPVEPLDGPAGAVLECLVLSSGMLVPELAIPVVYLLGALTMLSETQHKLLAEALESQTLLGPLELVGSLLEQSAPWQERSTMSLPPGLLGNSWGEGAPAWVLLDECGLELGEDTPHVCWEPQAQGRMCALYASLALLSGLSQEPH
Procedure: 24 mL of THP1-Dual™ cells (at a density of 1.5×10^6 cells/mL) were treated with 2 mM metabolite or vehicle control for 16 hours. The cells were then centrifuged at 340×g for 5 minutes at 4° C., resuspended in 20 mL of ice-cold PBS, and centrifuged again. The cells were resuspended in 1200 μL of PBS, divided into 10 aliquots of 100 μL in 0.2 mL PCR tubes and centrifuged at 325×g for 2 minutes at 4° C. 80 μL of the PBS supernatant was removed using a pipette and the tubes were gently tapped to resuspend the cells. Each of the metabolite and vehicle-treated cell tubes were then heated in parallel in a PCR machine for 3 minutes at temperatures ranging from 37° C. to 67° C. […] The entire content was centrifuged at 100,000×g for 20 minutes at 4° C., the supernatant was removed into a fresh tube, and the protein concentration of the 37° C. sample was measured. […] The volume of lysate that gave 200 μg of protein at the 37° C. temperature point was determined and removed into a fresh tube for all other temperature points.
The proteins were cleaned up and the peptides digested following previously described methods (Science 346, (2014); Nat. Protoc. 10, 1567-1593 (2015)). […] The next day, the digested peptides were transferred to a fresh Eppendorf™ tube and the concentration of peptides measured in the 37° C. temperature point. […]

GSDMD [3] = target: T1, GSDMD; experiment: Western blot of GSDMD cleavage in THP-1 cells; type: cell-based
Procedure: Cells were collected and lysates prepared using total lysis buffer (50 mM Tris-HCl, pH 8.0; 150 mM NaCl; 1% Triton X-100; 1% SDS). The supernatant was obtained by centrifuging at 10,000 RPM for 10 minutes at 4° C. using a benchtop PCR centrifuge. Protein quantification was performed using the Bio-Rad DC Protein Assay Kit (Bio-Rad, NC, USA). Proteins were separated using 12% SDS-PAGE gels and transferred to a PVDF membrane using the Bio-Rad Trans-turbo semi-dry transfer apparatus at 25 V/1 A for 1 hour. The membrane was blocked with Tris-buffered-saline-Tween-20™ (TBST) containing 5% skim milk for 30 minutes at room temperature. The membrane was then probed overnight at 4° C. with rabbit monoclonal recombinant anti-GSDMD antibody (ab210070, Abcam), anti-cleaved N-terminal GSDMD antibody (ab215203, Abcam) and mouse anti-actin monoclonal antibody (MAB1501, MilliporeSigma) for human FL-GSDMD, CL-GSDMD and actin. The next day, the membranes were washed with TBST three times and probed with goat anti-rabbit (1706515, Bio-Rad) or goat anti-mouse (1706516, Bio-Rad) horseradish peroxidase-conjugated IgG for 1 hour at room temperature. The secondary antibodies were diluted in TBST containing 5% (w/v) skim milk at 1:5000 and the membranes washed with TBST before detecting the proteins of interest using the Clarity™ Western ECL Substrate (Bio-Rad) on a Chemidoc-IT Imager (UVP, Upland, CA, USA).

Question: Which results are given for O=C(O)CCc1ccccc1O [Compound I-1, 3-(2-hydroxyphenyl)propanoic acid]?
Answer: overall survival, treatment initiated seven days after implantation (B16.F10 melanoma tumours; IMDM-CR mice, B16.F10, treatment started 7 days after implantation): still effective; overall survival, combination with anti-PD-L1 vs anti-PD-L1 alone (B16.F10 melanoma tumours; female IMDM-CR mice, B16.F10 tumours, 3,2-HPP i.p. plus anti-PD-L1): further improvement; overall survival / immune surveillance of B16.F10 melanoma (B16.F10 melanoma tumours; female IMDM-CR mice, i.p. treatment from day 1): increased the overall survival; toxicity or weight loss [1]: without toxicity or weight loss; GSDMD protein denaturation curve (GSDMD [2]; NPARC test): impacted; number of potential protein targets identified (NPARC) (GSDMD [2]; proteome-wide, 2 mM metabolite, 16 hours): 647; GSDMD cleavage in the presence of LPS or LPS+NG stimulation (GSDMD [3]): facilitating gasdermin D cleavage
